This note sets out measurements from ChEMBL document CHEMBL1255246, “Systemic pharmacokinetics of rifaximin in volunteers with shigellosis” (Antimicrob Agents Chemother, 2008).

Holding throughout (assay type): ADME, organism-based
The nature of data set [1]: Tmax in Shigella flexneri challenged human at […], po administered every 8 hrs for three days measured after last dose. More on the design: route oral. The conditions noted are these: in vivo.
Data set [2] in a line: AUC (0 to last) in Shigella flexneri challenged human at […], po administered every 8 hrs for three days measured after third dose. More on the design: route oral, time 0 - last. The conditions noted are these: plasma.
Data set [3] is described as follows: AUC (0 to last) in Shigella flexneri challenged human at […], po administered every 8 hrs for three days measured after last dose. The note with it: plasma. Details: time 0 - last, route oral.
The nature of data set [4]: Cmax in Shigella flexneri challenged human at […], po administered every 8 hrs for three days measured after third dose. More on the design: route oral. The note with it: in vivo.
The nature of data set [5]: Oral bioavailability in human at 200 mg three times a day for 3 days. The note with it: in vivo.
Data set [6] is described as follows: Drug level in healthy human feces at 400 mg single dose. The conditions noted are these: faeces, read-out: Drug uptake.
A short description of data set [7]: Drug level in healthy human urine at 400 mg single dose. The conditions noted are these: read-out: Drug uptake.
Data set [8] can be described thus: Cmax in Shigella flexneri challenged human at […], po administered every 8 hrs for three days measured after last dose. Details: route oral. The conditions noted are these: in vivo.
A short description of data set [9]: Tmax in Shigella flexneri challenged human at […], po administered every 8 hrs for three days measured after third dose. The note with it: in vivo. Details: route oral.

For `CO[C@H]1/C=C/O[C@@]2(C)Oc3c(C)c(O)c4c(O)c(c5c(nc6cc(C)ccn65)c4c3C2=O)NC(=O)/C(C)=C\C=C\[C@H](C)[C@H](O)[C@@H](C)[C@@H](O)[C@@H](C)[C@H](OC(C)=O)[C@@H]1C` [RIFAXIMIN], the results for the Tmax in data set [1] and in [9] were 2.11 h and 2.77 h, respectively. For the same compound, the AUC(0-t) at 8 h in data set [2] was determined as 6.95 ng·h/mL; in data set [3], 7.83 ng·h/mL. The Cmax in data set [4] stood at 1.63 ng/mL; in data set [8] it was 1.23 ng/mL. The compound further registered a bioavailability in [5] below 0.4%. Also, the dose excreted in data set [6] was 97%; in data set [7] it was 0.32%.

A word on the Tmax: it is the time at which the peak concentration occurs. As a reminder, the AUC(0-t) is the area under the concentration-time curve up to a stated or last time point. By Cmax is commonly meant the highest concentration seen after dosing. In general, bioavailability refers to the share of a dose that reaches the circulation, judged against a reference dose that is usually intravenous. The low end stands for little systemic uptake, the high end for much systemic uptake.
